Laboratory results: patent US12259388B2, “Cofilin phosphorylation for quantifying CD4 T cell damage and predict CD4 T cell recovery from anti-retroviral therapy” (VIRONGY L.L.C., priority 2018, dated 2025)

Tests used:
HIV-1 = details: cited from earlier work
[1] = test system: cofilin, LIMK in resting CD4 T cells; details: cited from earlier work; for effect on cofilin activation / phosphorylation: resting CD4 T cells
A3R5.7 CD4 T cells = assay: CXCL12-induced T cell chemotaxis (transwell) assay; type: cell-based, human; details: CXCL12 40 ng/ml
Method: FIG. 3. Quantification of effects of cofilin hyperactivation on T cell migration. (A) A3R5.7 T cells were treated with different dosages of R10015 for one hour. Phospho-cofilin and total cofilin were quantified by Western blot. (B) The relative ratio of p-cofilin/cofilin in response to R10015 treatment was plotted (n=4 independent experiments). (C) R10015 inhibits cofilin phosphorylation and T cell chemotaxis in response to CXCL12. A3R5.7 cells were treated with different dosages of R10015 for one hour, and then added to the upper chamber of a 24-well transwell plate. The lower chamber was filled with CXCL12 (40 ng/ml), and cell migration to the lower chamber was quantified (n=3 independent experiments). […]
(§1) T cell migration is controlled by cycles of cofilin phosphorylation and dephosphorylation, which are regulated by the LIM-domain kinase (LIMK) through serine 3 phosphorylation (27, 54). To quantify the direct effect of cofilin hyperactivation on T cell migration, we used a recently discovered LIMK inhibitor, R10015 (55), to block cofilin phosphorylation in A3R5.7 CD4 T cells. […]
A half million cells were resuspended into 100 μl RPMI-1640 medium and then added to the upper chamber of a 24-well transwell plate (Corning, Corning, NY). […] The plate was incubated at 37° C. for 2 hours, and then the upper chamber was removed and cells in the lower chamber were counted. […]

[2] = test system: cofilin phosphorylation in A3R5.7 CD4 T cells; assay: Western blot for p-cofilin and cofilin after R10015 treatment; type: cell-based, human
Method: FIG. 3. Quantification of effects of cofilin hyperactivation on T cell migration. (A) A3R5.7 T cells were treated with different dosages of R10015 for one hour. Phospho-cofilin and total cofilin were quantified by Western blot. (B) The relative ratio of p-cofilin/cofilin in response to R10015 treatment was plotted (n=4 independent experiments). (C) R10015 inhibits cofilin phosphorylation and T cell chemotaxis in response to CXCL12. A3R5.7 cells were treated with different dosages of R10015 for one hour, and then added to the upper chamber of a 24-well transwell plate. The lower chamber was filled with CXCL12 (40 ng/ml), and cell migration to the lower chamber was quantified (n=3 independent experiments). (D) The linear correlation between T cell migration and levels of cofilin phosphorylation. The X-axis is the relative ratio of p-cofilin/cofilin derived from (B); the Y-axis is the number of migrating cells derived from (C).
as §1, with “cells. We then performed CXCL12-induced T cell chemotaxis in the presence of cofilin hyperactivation.” for “cells.”

Compound: C=C1[C@@H](O)[C@@H]2O[C@]3(CC[C@H](/C=C/[C@@H](C)[C@@H]4CC(C)=C[C@@]5(O[C@H](C[C@@](C)(O)C(=O)O)CC[C@H]5O)O4)O3)CC[C@H]2O[C@@H]1[C@@H](O)C[C@H](C)[C@H]1O[C@@]2(CCCCO2)CC[C@H]1C [okadaic acid]
- effect on HIV latent infection of resting CD4 T cells (HIV-1): promotes HIV latent infection
- effect on cofilin activation / phosphorylation [1]: increase cofilin phosphorylation
- effect on LIMK ([1]; transient treatment of resting CD4 T cells): activates LIMK

Compound: COC(=O)c1ccc2nc(C3CCN(c4ncnc5[nH]cc(Cl)c45)CC3)[nH]c2c1 [R10015]
- decrease in cell migration (A3R5.7 CD4 T cells; A3R5.7 CD4 T cells, at 50% reduction in cofilin phosphorylation): 20-40%
- T cell chemotaxis in response to CXCL12 (A3R5.7 CD4 T cells; A3R5.7 cells treated one hour): inhibits
- inhibition of cofilin phosphorylation ([2]; A3R5.7 CD4 T cells, different dosages of R10015 for one hour, ratio p-cofilin/cofilin): dosage-dependent inhibition of cofilin phosphorylation
- cofilin phosphorylation reduced to ([2]; at around 15 M of R10015, A3R5.7 cells, one hour): around 50%

Compound: pertussis toxin
- effect on HIV latent infection of resting CD4 T cells (HIV-1): inhibits
- effect on cofilin activation / phosphorylation [1]: inhibits cofilin activation

Compound: CN[C@@H]1C[C@H]2O[C@@](C)([C@@H]1OC)n1c3ccccc3c3c4c(c5c6ccccc6n2c5c31)C(=O)NC4 [staurosporine]
- effect on HIV latent infection of resting CD4 T cells (HIV-1): enhances HIV latent infection
- effect on cofilin activation / phosphorylation [1]: induce gradual cofilin activation
